Test results as given in patent publication US4558127A, “5-Fluorouracil nitroxyl derivatives possessing antitumor activity” (priority 1984, dated 1985).
Entries after “also recorded” stand apart in the source; their conditions may differ. Structures can show the parent of a compound that is named as a salt.

Assays:
[1] = Toxicity (LD50), intraperitoneal administration, mongrel white mice, Burns method; type: in vivo, mouse
Description: Toxicity of the compounds according to the present invention has been determined on mongrel white mice in experimental intraperitoneal administration of these compounds and evaluated by the Burns method (using curves of accumulation of the animal death frequencies vs. dose).
As the toxicity characteristic use was made of the dose causing death of 50% of the animals employed for the experiment (LD50).
For the determination of toxicity of (1,3-bis-(2,2,5,5-tetramethyl-1-oxyl-Δ^3 -pyrrolin-3-oyl)-5-fluorouracyl(compound I), 1-(2,2,5,5-tetramethyl-1-oxyl-Δ^3 -pyrrolin-3-oyl)-5-fluorouracyl (compound II) and 3-(2,2,5,5-tetramethyl-1-oxyl-Δ^3 -pyrrolin-3-oyl)-5-fluorouracyl (compound III), these compounds were administered intraperitoneally in the form of an emulsion in a 10% aqueous solution of polyoxyethylsorbitan monooleate (Tween-80, Ferak Berlin West Germany).
For the determination of toxicity of sodium salt of 3-(2,2,5,5-tetramethyl-1-oxyl-Δ^3 -pyrrolin-3-oyl)-5-fluorouracyl (compound IV), Ftorafur and 5-fluorouracyl, these compounds were also administered intraperitoneally in the form of aqueous solutions.

leukemia La [2] = experiment: Antitumor activity on grafted leukemia La in mice (ELS, kinetic criterion, chemotherapeutic index); type: in vivo, mouse; conditions: for Chemotherapeutic index I60 = LD10/ED60 / ELS (extension of average life span) / kinetic criterion (.chi.) = 1-.phi.t/.phi.c: La, C57Bl mice; for Chemotherapeutic index I60 = LD10/ED60: i/p
Description: (§1) For the determination of antitumor activity these compounds (I, II, III, IV), 5-fluorouracyl and Ftorafur were used in the same solvents as in the determination of toxicity.
(§2) The determination of antitumor activity was effected on grafted tumors of mice: leukemia L-1210, leukemia P-388, Leukemia La, melanoma B-16, adenocarcinoma 755 (Ca-755), as well as on grafted tumors of rats: Schwetz erythroleukosis, Walker carcinosarcoma (WCS), Geren carcinoma.
Leukemia La was grafted intraperitoneally using a suspension of leukemic cells in a physiological solution. The inoculum contained 10^8 of leukemia cells. […]
In the determination of the antitumor activity the test compounds were introduced in equitoxic doses.
(§3) The criterion of the antitumor activity for leukemia P-338, L-1210 and La is the extension of an average life span (ELS) of the test animals as compared to the control ones, expressed in percent and calculated by the formula: [formula] wherein Lt --life span of animals in the test group;
(§4) Lc --life span of animals in the control group, i.e. without administration of the test compounds.
(§5) The comparative assessment of the scope of therapeutic action is effected using chemotherapeutic indices I40, I60 and I100 : I40 =LD10 /ED40, I60 =LD10 /ED60 I100 =LD10 /ED100, where LD10 =dose causing death of 10% of the animals; ED40, ED60 and ED100 are effective doses causing extension of the animal's life span by 40, 60 and 100 percent respectively.

melanoma B-16 = experiment: Antitumor activity on grafted melanoma B-16 in mice (inhibition of tumor volume gain); type: in vivo, mouse; conditions: for Inhibition of tumor volume gain: B-16, CBAF1 mice
Description: as §1, §2
(§6) In the determination of the antitumor activity the test compounds were introduced in equitoxic doses. Ftorafur was also used in the optimal dose which is equal to […].
(§7) As the criterion of antitumor activity on solid tumors used is the inhibition (I) of the tumor volume gain in comparison with the control, expressed in percent and calculated by the formula: [formula] wherein Vc --average volume of the tumor in the control,
(§8) Vt --average volume of the tumor in the experiment.

Schwetz erythroleukosis = experiment: Antitumor activity on grafted Schwetz erythroleukosis in rats; type: in vivo, rat; conditions: for Inhibition of tumor volume gain: mongrel rats, days 7-14
Description: as §1, §2, §6, §7, §8

sarcoma 180 = conditions: background art; cited from earlier work
Harding-Passey melanoma = conditions: background art; cited from earlier work
Walker carcinosarcoma = conditions: background art; cited from earlier work
[3] = test system: alveolar carcinoma of liver; conditions: background art; cited from earlier work
[4] = background art; cited from earlier work
adenocarcinoma 755 = experiment: Kinetic curves of tumor volume gain, adenocarcinoma 755 in mice (FIG. 2); conditions: C 57 B1 mice, equimolar single doses 0.2 mmol/kg i/p, daily over 10 days
Protocol: To reveal the antitumor activity and kinetic characteristic of the therapeutic effectiveness of compound (IV) and Ftorafur in the case of adenocarcinoma 755, a series of experiments was conducted on mice C 57 B1. Adenocarcinoma 755 was grafted using a tumor cell suspension in a physiological solution (dilution 1:1 by mass) and was administered hypodermally in the dose of 0.3 ml to each mouse. The test compounds were administered intraperitoneally, starting from the 1-st day after grafting of the tumor, daily over the period of 10 days.
The tumor volume increase (V) of adenocarcinoma 755 was determined in cm^3 for 28 days (.tau.).
In the kinetic curve 5 experimental points corresponding to the control experiment are conventionally shown as circles, while experimental points corresponding to the use of Ftorafur are conventionally shown as squares.

leukemia L-1210 = experiment: Antitumor activity on grafted leukemia L-1210 in mice; type: in vivo, mouse; conditions: for ELS (extension of average life span): control life span 7,5 days
Description: as §1, §2
Leukemia L-1210 was grafted intraperitoneally, 10^5 cells in 0.2 ml of ascitic liquid.
as §6, §3, §4, §5

leukemia P-388 = experiment: Antitumor activity on grafted leukemia P-388 in mice; type: in vivo, mouse; conditions: for ELS (extension of average life span): control life span 10 days
Description: as §1, §2
Leukemia P-388 was grafted intraperitoneally, 10^6 cells in 0.2 ml of ascitic liquid.
as §6, §3, §4, §5

[5] = test system: adenocarcinoma 755 (Ca-755); experiment: Antitumor activity on grafted adenocarcinoma 755 in mice; type: in vivo, mouse
Description: as §1, §2, §6, §7, §8

[6] = test system: Walker carcinosarcoma (WCS); experiment: Antitumor activity on grafted Walker carcinosarcoma in rats; type: in vivo, rat
Description: as §1, §2, §6, §7, §8

Geren carcinoma = experiment: Antitumor activity on grafted Geren carcinoma in rats; type: in vivo, rat; conditions: mongrel rats, single dose 60 mg/kg i/p, days 7-16
Description: as §1, §2, §6, §7, §8

leukemia La [7] = experiment: Kinetic curves of spleen mass, leukemia La in mice (FIG. 1); type: in vivo, mouse; conditions: equimolar single doses 0.2 mmol/kg i/p
Protocol: Leukemia La was grafted intraperitoneally by means of a suspension of leukemic cells in a physiological solution. The inoculum contained 10^8 of leukemic cells. Compound (IV), Ftorafur and 5-fluorouracyl were also administered intraperitoneally so that the first administration was effected 3 hours after the tumor grafting, and then--on a daily basis over the period of seven days.
Determined were the variations of mass (M) of mice spleen in g over 14 days (.tau.). The obtained data were used to plot a graph in coordinates M-.tau. represented in FIG. 1.

grafted tumors = experiment: Antitumor activity on grafted tumors, overall assessment; type: in vivo, mice and rats
Description: as §1, §2, §6, §3
As the criterion of antitumor activity on solid tumors used is the inhibition (I) of the tumor volume gain in comparison with the control, expressed in percent and calculated by the formula: [formula] wherein Vc --average volume of the tumor in the control, […]

Solubility = type: physicochemical; conditions: water
[8] = Stability against hydrolysis; type: physicochemical; conditions: room temperature, pH 3 to 11, about 5 hours
[9] = Reaction of aqueous solutions; type: physicochemical
[10] = single dose 45 mg/kg i/p, days 1-6
[11] = Ca-755, C57Bl mice, single dose 65 mg/kg i/p, days 1-10

O=c1[nH]c(=O)n(C2CCCO2)cc1F (stereo not drawn) [Ftorafur, 1-(α-furanidyl)-5-fluorouracyl, reference compound]
LD50 ([1]; mouse, in vivo, ip, mice, intraperitoneal, I, II, III as emulsion in 10% aqueous Tween-80, IV, Ftorafur, 5-fluorouracyl as aqueous solutions): 640 mg/kg | Chemotherapeutic index I60 = LD10/ED60 (leukemia La [2]; days 1,5,9): 2.0 | ELS (extension of average life span) (leukemia La [2]; [10]): 15% | kinetic criterion (.chi.) = 1-.phi.t/.phi.c (leukemia La [2]; [10]): 0.17 | ELS (extension of average life span) (leukemia La [2]; single dose 300 mg/kg i/p, days 1,5,9): 60% | Inhibition of tumor volume gain (melanoma B-16; single dose 300 mg/kg, days 1,5,9, mode of grafting printed i/p): 10% | Inhibition of tumor volume gain (Schwetz erythroleukosis; single dose 90 mg/kg i/p): 15% | activity in respect of sarcoma 180 (sarcoma 180): rather high activity | activity in respect of Harding-Passey melanoma (Harding-Passey melanoma): rather high activity | activity in respect of Walker carcinosarcoma (Walker carcinosarcoma): rather high activity | activity in respect of alveolar carcinoma of liver [3]: rather high activity | toxicity / side effects in words [4]: inhibits hemopoiesis and causes complications on the side of the gastro-intestinal tract | inhibition of tumor growth, in words (adenocarcinoma 755): no antitumor activity

CC1(C)C=C(C(=O)n2c(=O)[nH]cc(F)c2=O)C(C)(C)N1[O] [IV, sodium salt of 3-(2,2,5,5-tetramethyl-1-oxyl-Δ^3-pyrrolin-3-oyl)-5-fluorouracyl]
toxicity in words ([1]; general statement): low toxicity | toxicity compared with Ftorafur, in words ([1]; mice, i/p): approach toxicity of Ftorafur | less toxic than 5-fluorouracyl, fold ([1]; mice, i/p, relative to 5-fluorouracyl): 5 times | Toxicity, LD50 ([1]; mice, intraperitoneal, I, II, III as emulsion in 10% aqueous Tween-80, IV, Ftorafur, 5-fluorouracyl as aqueous solutions): 510 mg/kg | Chemotherapeutic index I60 = LD10/ED60 (leukemia La [2]; days 1,3,5,7,9): 4,2 | kinetic criterion (.chi.) = 1-.phi.t/.phi.c (leukemia La [2]; single dose 75 mg/kg i/p, days 1-7 after grafting): 0,7 | ELS (extension of average life span) (leukemia La [2]; single dose 75 mg/kg i/p, days 1-7 after grafting, control life span 6,5 days): 80% | ELS (extension of average life span) (leukemia La [2]; single dose 100 mg/kg i/p, days 1,3,5,7,9, control life span 6,5 days): 60% | chemotherapeutic index I60 relative to that of 5-fluorouracyl, fold (leukemia La [2]; leukemia La): 1.2 time | chemotherapeutic index I60 relative to that of Ftorafur, fold (leukemia La [2]; leukemia La): 2 times | therapeutic effect compared with 5-fluorouracyl, in words (leukemia La [2]; leukemia La): comparable with that of 5-fluorouracyl | effectiveness superior to Ftorafur, fold (leukemia La [2]; leukemia La, equitoxic doses, comparable treatment schedules): 5 times | Inhibition of tumor volume gain (melanoma B-16; single dose 75 mg/kg i/p, days 1-10): 30% | effectiveness relative to Ftorafur, fold (melanoma B-16; melanoma B-16, comparable doses and treatment procedures): 3 times | Chemotherapeutic index I60 = LD10/ED60 (leukemia L-1210; L-1210, BDF1 mice, i/p, days 1-7): 5,6 | ELS (extension of average life span) (leukemia L-1210; L-1210, BDF1 mice, single dose 65 mg/kg i/p, days 1-9): 100% | ELS (extension of average life span) (leukemia L-1210; L-1210, BDF1 mice, single dose 75 mg/kg i/p, days 1-7): 60% | antitumor activity, leukemia L-1210, in words (leukemia L-1210; mouse, in vivo): high antitumor activity | Chemotherapeutic index I100 = LD10/ED100 (leukemia P-388; P-388, BDF1 mice, i/p, days 1,3,5,7,9): 4,2 | ELS (extension of average life span) (leukemia P-388; P-388, BDF1 mice, single dose 75 mg/kg i/p, days 1-7): 90% | ELS (extension of average life span) (leukemia P-388; P-388, BDF1 mice, single dose 100 mg/kg i/p, days 1,3,5,7,9): 100% | antitumor activity, leukemia P-388, in words (leukemia P-388; mouse, in vivo): high antitumor activity | Inhibition of tumor volume gain [5, 11]: 70% | kinetic criterion (.chi.) = 1-.phi.t/.phi.c [5, 11]: 0.3 | antitumor activity, adenocarcinoma 755, in words ([5]; mouse, in vivo): considerable antitumor activity | Inhibition of tumor volume gain ([6]; WCS, mongrel rats, single dose 60 mg/kg i/p, days 1-10): 75% | antitumor activity, Walker carcinosarcoma, in words ([6]; rat, in vivo): considerable antitumor activity | effectiveness relative to Ftorafur and 5-fluorouracyl, fold (Schwetz erythroleukosis; comparable doses and treatment procedures): 2-3 times | Inhibition of tumor volume gain (Schwetz erythroleukosis; single dose 75 mg/kg i/p): 45% | Inhibition of tumor volume gain (Geren carcinoma): 20% | inhibition of leukemia La (spleen mass gain), in words (leukemia La [7]; C 57 B1 mice, daily over seven days): most effective in inhibition of leukemia La | activity relative to 5-fluorouracyl (spleen mass gain), in words (leukemia La [7]): by several times superior | antileukemic effect, in words (grafted tumors; in vivo): high antileukemic activity | effect on solid tumors, in words (grafted tumors; solid tumors): most active; also recorded: high antitumor activity in respect of solid tumors | solubility in water (Solubility): very well soluble in water | stability against hydrolysis [8]: do not undergo any noticeable hydrolytical decomposition | reaction of aqueous solutions [9]: alkaline reaction | inhibition of tumor growth, in words (adenocarcinoma 755): considerable inhibition of the tumor growth
